Measurements as given in US20240174645A1, “COMPOUND, PRODUCTION METHOD THEREFOR, COMPLEX, AND SHORT WAVELENGTH INFRARED FLUORESCENT AGENT” (RIKEN, priority 2021, published 2024).

Tested on: HeLa cell
Test: Cytotoxicity test (MTT, cell viability)
Format: cell-based
Conditions: HeLa cells, concentrations of 1 nM to 100 nM, cultured for 6 hours, 24 hours, or 48 hours
Experimental: HeLa cell was seeded on a 96-well plate at 6×10^3 per well and was cultured overnight. Aqueous solutions of the compound 4 at concentrations of 0.1 nM, 1 nM, 10 nM and 100 nM were prepared as test agents, and the test agent at each concentration was added to the well, and HeLa cells were further cultured for 6, 24, and 48 hours. After the culturing for each of the above hours, MTT (3-(4,5-di-methylthiazol-2-yl)-2,5-diphenyltetrazolium bromide) reagent was added to the well, and the resultant product was further cultured for 2 hours.
After the culturing for 2 hours, a solubilizing solution was added to the well, and formazan produced in the living cell was dissolved by pipetting. By sealing the 96-well plate and allowing the resultant product to stand in an incubator overnight at 37° C., formazan was completely solubilized. A plate reader was used to measure 570 nm (formazan dye) and 650 nm (background), and the cell viability of the well to which the test agent of each concentration was added was determined, with the cell viability of a well without the addition of a test agent being 100%.
Culturing of HeLa cells and determination of cell viability of the well were performed as in the cytotoxicity test for the compound 4, except that a test agent was prepared using the compound 10 instead of the compound 4.

CC1(C)C(/C=C/C=C/C=C/C=C/C=C/C=C2/N(CCCCS(=O)(=O)O)c3ccc4ccccc4c3C2(C)C)=[N+](CCCCS(=O)(=O)[O-])c2ccc3ccccc3c21 [compound 10, ICG-C11]
cytotoxicity (cell viability): did not exhibit cytotoxicity
